Here are results for 2 molecules from US10821079B2, “PKC activators and combinations thereof” (Cognitive Research Enterprises, Inc., priority 2011, dated 2020).

The subject of data set [1] is PKC-ε. As to the kind of experiment: PKC-ε mRNA by RT-PCR in primary rat hippocampal neurons. The format is cell-based. Conditions: controls and ASPD-treated cells. The method, then:
RNA was isolated from the cells using Trizol reagent (Invitrogen, USA) following the manufacturer's protocol. Briefly, 5 μg of total RNA was reverse transcribed using oligo (dT) and Superscript III (Invitrogen, USA) at 50° C. for 1 hr. Two μl of the cDNA product was amplified using primers for PKC-ε (Forward Primer—[…], Reverse primer—[…]), and β-tubulin (Forward Primer—[…], Reverse primer—[…]) (Origene, Rockville, Md.) for 25 cycles following standard PCR protocols and 55° C. annealing temperature. The PCR amplicons were analyzed in an E-Gel (Invitrogen, USA). The gel image was documented using a Fuji Image gel scanner (FLA-9000, Fuji Film) and densitometric quantification was performed using the IMAL software (Blanchette Rockefeller Neurosciences Institute, Morgantown, W. Va.). Data were represented as normalized ratio of PKC-ε OD (Optical Density) against β-tubulin OD for three independent experiments.
Primary neurons were treated with ASPD and/or DCPLA-ME. PKC-ε mRNA was quantified by RT-PCR as described above. RNA prepared from control and treated cultured primary rat hippocampal neurons were isolated and reverse transcribed. Individual cDNA was amplified for PKC-ε and β-actin. PKC-ε expression was normalized to β-actin.

For data set [2], the system named is rat hippocampal neurons. As to the kind of experiment: Differentiation of seven day old rat hippocampal neurons. The format is cell-based. Conditions: RA 10 μM, bryostatin 1 0.27 nM, DCPLA-ME 100 nM. The protocol: FIG. 27: PKC-ε specific activation induces maturation and differentiation in rat primary neurons. Seven day old culture of rat hippocampal neurons were treated with RA (10 μM), 0.27 nM bryostatin 1(Bry), RA+bryostatin 1(RA+Bry), DCPLA-ME (100 nM) or RA+DCPLA-ME for 48 h. FIG. 27A—Confocal micrographs showing rat hippocampal neurons stained for MAP-2 (green), synaptophysin (red), and DAPI (blue). FIG. 27B—Graphical representation of number of dendritic branches per neuron. PKCε activation by RA+bryostatin 1(RA+Bry), DCPLA-ME or RA+DCPLA-ME increase the dendritic branching by 2-fold. FIG. 27C—Mean fluorescence intensity for MAP-2 or synaptophysin calculated from eight random 225 μm2 of confocal images. Data are represented as mean±SE. * represents significance with respect to control (* p<0.05, ** p<0.005 and *** p<0.0005).
Dendritic branching was increased in the cells treated with RA and a PKC activator, as evidenced by the MAP-2 staining. Similarly, the synaptic vesicle pool increased was also seen by increased synaptophysin.
The effect of RA+bryostatin 1 on development of primary neurons was also investigated. Seven day old rat hippocampal neurons were treated with RA, bryostatin 1, RA+bryostatin 1, DCPLA-methyl ester (“DCPLA-ME”) or RA+DCPLA-ME for 48 hr. RA+bryostatin produced a greater increase of MAP2 and synaptophysin than RA or bryostatin alone (FIGS. 27A & C).

Data set [3] concerns GSK-3β. As to the kind of experiment: Phospho GSK-3β (Ser-9) Western Blot in ASPD treated primary neurons. Conditions: 50 nM ASPD + 100 nM DCPLA-ME. The format is cell-based, rat. The text has this:
Phospho GSK-3β expression was normalized against total GSK-3β expression. […] Data are represented as mean±SEM. (Student's t test *. p<0.05; and **, p<0.005 n=3).
Since GSK-3β is a key enzyme in the production of hyperphosphorylated tau protein, and phosphorylation of the Ser-9 residue causes GSK-3β inhibition, increasing phosphorylation of GSK-3β at Ser-9 by PKC could also enhance the protective effect of DCPLA-ME.

For data set [4], the system named is synaptosomes. As to the kind of experiment: Western blot of synaptosomes from treated cells. The format is cell-based, human. To be noted: RA 10 μM, Bryostatin-1 0.27 nM, 72 hr. The method, then: Synaptosomes from undifferentiated and differentiated cells were prepared following the method described earlier (29). See Nagy et al. (1984) J Neurochem 43, 1114-1123. Briefly, the cells were washes in 1×PBS and homogenized in 10 volumes of buffer (“buffer1”) containing 0.32 M sucrose, 5 mM HEPES pH 7.2, and 0.1 mM EDTA in a Teflon homogenizer. The homogenate was centrifuged at 1000×g for 10 min to remove the nuclear fraction. The supernatant obtained was again spun at 12000×g for 20 min at 4° C. The pellet thus obtained was resuspended in 3 volumes of buffer1 and was layered on to the 16%/10%/8.5% Percoll gradient prepared from the stock isoosmotic percoll containing 9 parts 100% percoll, and 1 part 2.5 M sucrose. The preparation was centrifuged at 15000×g for 20 min at 4° C. Synaptosomes collected from the layer between 10% and 16% gradient was washed with 1×PBS and was centrifuged at 20000×g for 15 min. The purified synaptosomes were homogenized in homogenizing buffer and were subjected to western blot as described before.
Western blot analysis was performed after 72 hr.
(In general: In western blotting, separated proteins are transferred to a membrane and probed.)

For data set [5], the target named is T1, PKC-ε-RACK1 (Homo sapiens, UniProt Q02156).
T1 construct: host or cells: SH-SY5Y neuroblastoma cells
As to the kind of experiment: PKC-ε interaction with RACK1 (confocal colocalization, coimmunoprecipitation). The format is cell-based. Conditions: 0.27 nM. The method, then: Cells were grown in two chambered slides (Nunc, USA) at low density. For immunofluorescence staining, the cells were washed with PBS (pH 7.4) and fixed with 4% paraformaldehyde for 4 min. Following fixation, the cells were blocked and permeabilized with 5% serum and 0.3% Triton X 100 in 1×PBS for 30 min. The cells were washed three times with 1×PBS and incubated with primary antibodies for 1 hr at 1:100 dilution. The incubation slides were then washed again three times in 1×PBS and were incubated with the FITC anti-rabbit IgG and Rhodamine anti-mouse IgG for 1 hr at 1:400 dilution. The cells were further washed and treated with DAPI (4′,6-diamidino-2′-phenylindole, dihydrochloride) (Thermo Scientific, USA) to stain the nucleus. Finally, the slides were washed and mounted in Pro Long Gold antifade mounting solution (Invitrogen, USA) and were viewed under the LSM 710 Meta confocal microscope (Zeiss) at 350 nm, 490 nm, and 540 nm excitation and 470 nm, 525 nm, and 625 nm emission for DAPI, FITC, and Rhodamine respectively. Six individual fields at 63× oil lens magnification were analyzed for the mean fluorescence intensity (MFI) in each channel. The co-localization correlation generated by the ZEN software (Zeiss).
Coimmunoprecipitation was done following protocol described Besson et al. with slight modification. See Besson et al. (2002) J Biol Chem 277, 22073-22084. […] (DSP) for 30 min at room temperature to crosslink the intracellular proteins following the manufacturer's protocol. After crosslinking the proteins, the cells were lysed in the homogenizing buffer mentioned above. For immunoprecipitation, 500 μg of protein was incubated with 4 μg of appropriate antibody and 25 μl of Protein-A Sepharose beads (Invitrogen, USA) for 3 hr at 4° C. Immunoprecipitates were rinsed three times in the homogenizing buffer and were subjected to Western blot as described earlier.
Next, cells were prepared according to the coimmunoprecipitation methods discussed above.

For data set [6] the following is noted: rats; cited from earlier work.

T1 sequence (Q02156 whole entry): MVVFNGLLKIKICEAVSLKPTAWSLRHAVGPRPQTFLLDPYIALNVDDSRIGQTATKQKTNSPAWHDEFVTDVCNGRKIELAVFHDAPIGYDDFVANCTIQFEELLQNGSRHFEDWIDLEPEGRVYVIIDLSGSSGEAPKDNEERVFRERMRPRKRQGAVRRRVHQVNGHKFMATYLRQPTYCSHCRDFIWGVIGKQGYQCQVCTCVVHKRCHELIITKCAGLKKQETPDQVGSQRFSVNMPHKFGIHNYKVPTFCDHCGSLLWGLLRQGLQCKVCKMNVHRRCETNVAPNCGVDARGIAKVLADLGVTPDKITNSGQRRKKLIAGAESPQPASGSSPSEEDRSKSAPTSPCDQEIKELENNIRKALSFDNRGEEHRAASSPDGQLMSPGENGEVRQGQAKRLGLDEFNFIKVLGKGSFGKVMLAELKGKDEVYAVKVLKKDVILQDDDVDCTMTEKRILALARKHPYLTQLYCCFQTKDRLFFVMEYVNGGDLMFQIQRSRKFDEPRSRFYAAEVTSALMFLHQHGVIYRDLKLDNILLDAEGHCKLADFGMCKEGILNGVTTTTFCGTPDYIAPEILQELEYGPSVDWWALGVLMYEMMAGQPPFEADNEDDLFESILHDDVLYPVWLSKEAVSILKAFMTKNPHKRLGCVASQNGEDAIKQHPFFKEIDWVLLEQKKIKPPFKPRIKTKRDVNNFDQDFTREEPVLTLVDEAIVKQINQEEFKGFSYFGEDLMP

Consider `CCCCCC1CC1CC1CC1CCCCCCCC(=O)OC` (stereo not drawn) [DCPLA-ME, methyl 8-(2-((2-pentylcyclopropyl)methyl)cyclopropyl)octanoate], for which the “PKC-ε transcript levels (in words)” value in data set [1] is recorded as “increased PKC-ε transcript levels”. In data set [2] (48 h), the “increase of dendritic branching” value amounted to 2 fold. In addition, the “Fractal dimension (dendritic branching)” value in data set [2] (48 hr) is recorded as 1.40±0.03. Further, the “phosphorylation of Ser-9 of GSK-3β (in words)” value in data set [3] was “restored phosphorylation of the Ser-9 residue of GSK-3β to normal levels”.

`CCC/C=C/C=C/C(=O)O[C@H]1/C(=C/C(=O)OC)C[C@H]2C[C@H]([C@@H](C)O)OC(=O)C[C@H](O)C[C@@H]3C[C@H](OC(C)=O)C(C)(C)C(O)(C[C@@H]4C/C(=C/C(=O)OC)C[C@H](/C=C/C(C)(C)[C@]1(O)O2)O4)O3` [Bryostatin-1]: the “increase in PKC-ε level in synaptosomes” value in data set [4] is listed as 2 fold. Moreover, in data set [5], the “PKC-ε-RACK1 interaction by RACK1 immunoprecipitation (in words)” value was “increased significantly at 5, 15, and 30 min”. Besides, the figures for the “colocalization correlation R” value in data set [5] (5 min) and in data set [5] (15 min) were 0.71 and 0.72, respectively. Moreover, the “acute LD50” value in data set [6] is 0.068 mg/kg.
